Laboratory results: ChEMBL document CHEMBL3045118, “Synthesis and biological activities of new Mannich bases of chlorokojic acid derivatives” (Med Chem Res, 2011)
In brackets after ≈: the same amount, converted by molar mass. Activity calls are given as the source filed them. The rule behind the calls is not given here.

Tests used:
Enterococcus faecalis [1] = assay: Antibacterial activity against cephalosporins and beta-lactam-resistant Enterococcus faecalis by microdilution method; format: functional
Pseudomonas aeruginosa [2] = assay: Antibacterial activity against trimethoprim-sulfamethoxazole, tazobactam-resistant Pseudomonas aeruginosa by microdilution method; format: functional
Proteus mirabilis [3] = assay: Antibacterial activity against ESbetaL positive rimethoprim-sulfamethoxazole, cefepime, tazobactam-resistant Proteus mirabilis by microdilution method; format: functional
Bacillus subtilis [4] = assay: Antibacterial activity against ceftriaxon-resistant Bacillus subtilis by microdilution method; format: functional
Pseudomonas aeruginosa [5] = assay: Antibacterial activity against Pseudomonas aeruginosa ATCC 10145 by microdilution method; format: functional
[6] = Cytotoxicity against Chlorocebus aethiops (African green monkey) Vero cells assessed as maximum non-toxic concentration; format: cell-based; details: chlorocebus sabaeus, read-out: MNCC
Acinetobacter baumannii [7] = assay: Antibacterial activity against Acinetobacter baumannii RSKK 02026 by microdilution method; format: functional
Escherichia coli [8] = assay: Antibacterial activity against ESbetaL positive trimethoprim-sulfamethoxazole, cefepime, tazobactam-resistant Escherichia coli isolate by microdilution method; format: functional
Candida parapsilosis = assay: Antifungal activity against Candida parapsilosis ATCC 22019 by microdilution method; format: functional
Proteus mirabilis [9] = assay: Antibacterial activity against Proteus mirabilis ATCC 7002 by microdilution method; format: functional
Human respirovirus 3 [10] = assay: Antiviral activity against Human parainfluenza virus 3 infected African green monkey Vero cells assessed as concentration required to cause minimum inhibition of virus-induced cytopathic effect; format: functional
Staphylococcus aureus [11] = assay: Antibacterial activity against Staphylococcus aureus ATCC 25923 by microdilution method; format: functional
[12] = Cytotoxicity against Bos taurus (bovine) MDBK cells assessed as maximum non-toxic concentration; format: cell-based; details: cattle, read-out: MNCC
Human alphaherpesvirus 1 [13] = assay: Antiviral activity against Human herpesvirus 1 infected bovine MDBK cells assessed as concentration required to cause maximum inhibition of virus-induced cytopathic effect; format: functional
Human respirovirus 3 [14] = assay: Antiviral activity against Human parainfluenza virus 3 infected African green monkey Vero cells assessed as concentration required to cause maximum inhibition of virus-induced cytopathic effect; format: functional
Candida albicans = assay: Antifungal activity against Candida albicans ATCC 10231 by microdilution method; format: functional
Human alphaherpesvirus 1 [15] = assay: Antiviral activity against Human herpesvirus 1 infected bovine MDBK cells assessed as concentration required to cause minimum inhibition of virus-induced cytopathic effect; format: functional
Bacillus subtilis [16] = assay: Antibacterial activity against Bacillus subtilis ATCC 6633 by microdilution method; format: functional
Klebsiella pneumoniae [17] = assay: Antibacterial activity against Klebsiella pneumoniae RSKK 574 by microdilution method; format: functional
Escherichia coli [18] = assay: Antibacterial activity against Escherichia coli ATCC 35218 by microdilution method; format: functional
Enterococcus faecalis [19] = assay: Antibacterial activity against Enterococcus faecalis ATCC 29212 by microdilution method; format: functional
Acinetobacter baumannii [20] = assay: Antibacterial activity against trimethoprim-sulfamethoxazole, cefepime-resistant Acinetobacter baumannii by microdilution method; format: functional
Staphylococcus aureus [21] = assay: Antibacterial activity against oxacillin, gentamicin, aztreonam, trimethoprim-sulfamethoxazole-resistant Staphylococcus aureus by microdilution method; format: functional
Klebsiella pneumoniae [22] = assay: Antibacterial activity against ESbetaL positive trimethoprim-sulfamethoxazole, amoxicillin clavulonat, cefriaxon, cephepim, aztreonam-resistant Klebsiella pneumoniae by microdilution method; format: functional

O=c1cc(CCl)oc(CN2CCN(c3ccc(Cl)cc3)CC2)c1O
MIC (Enterococcus faecalis [1]): > 128 µg/mL | MIC (Pseudomonas aeruginosa [2]): > 128 µg/mL | MIC (Proteus mirabilis [3]): > 128 µg/mL | MIC (Bacillus subtilis [4]): > 128 µg/mL | MIC (Pseudomonas aeruginosa [5]): 64 µg/mL (≈ 173 µM) | MNTC [6]: 0.4 µg/mL | MIC (Acinetobacter baumannii [7]): 64 µg/mL (≈ 173 µM) | MIC (Escherichia coli [8]): > 128 µg/mL | MIC (Candida parapsilosis; Lodderomyces parapsilosis): 16 µg/mL (≈ 43.3 µM) | MIC (Proteus mirabilis [9]): 64 µg/mL (≈ 173 µM) | Activity (Human respirovirus 3 [10]): 0.025 µg/mL | MIC (Staphylococcus aureus [11]): 8 µg/mL (≈ 21.7 µM) | MNTC [12]: 1.6 µg/mL | Activity (Human alphaherpesvirus 1 [13]): 0.4 µg/mL | Activity (Human respirovirus 3 [14]): 0.4 µg/mL | MIC (Candida albicans): 16 µg/mL (≈ 43.3 µM) | Activity (Human alphaherpesvirus 1 [15]): 0.1 µg/mL | MIC (Bacillus subtilis [16]): 16 µg/mL (≈ 43.3 µM) | MIC (Klebsiella pneumoniae [17]): 64 µg/mL (≈ 173 µM) | MIC (Escherichia coli [18]): 64 µg/mL (≈ 173 µM) | MIC (Enterococcus faecalis [19]): 8 µg/mL (≈ 21.7 µM) | MIC (Acinetobacter baumannii [20]): > 128 µg/mL | MIC (Staphylococcus aureus [21]): > 128 µg/mL | MIC (Klebsiella pneumoniae [22]): > 128 µg/mL

CCOC(=O)C1=C[C@@H](OC(CC)CC)[C@H](NC(C)=O)[C@@H](N)C1 [OSELTAMIVIR]
Activity (Human respirovirus 3 [10]): <0.012 µg/mL | Activity (Human respirovirus 3 [14]): 1.6 µg/mL

CC1(C)S[C@@H]2[C@H](NC(=O)[C@H](N)c3ccccc3)C(=O)N2[C@H]1C(=O)O [AMPICILLIN]
MIC (Enterococcus faecalis [1]): > 128 µg/mL | MIC (Pseudomonas aeruginosa [2]): inactive | MIC (Proteus mirabilis [3]): > 128 µg/mL | MIC (Bacillus subtilis [4]): 0.5 µg/mL (≈ 1.43 µM) | MIC (Pseudomonas aeruginosa [5]): inactive | MIC (Acinetobacter baumannii [7]): 2 µg/mL (≈ 5.72 µM) | MIC (Escherichia coli [8]): > 128 µg/mL | MIC (Candida parapsilosis): inactive | MIC (Proteus mirabilis [9]): 2 µg/mL (≈ 5.72 µM) | MIC (Staphylococcus aureus [11]): < 0.12 µg/mL | MIC (Candida albicans): inactive | MIC (Bacillus subtilis [16]): 0.12 µg/mL (≈ 0.343 µM) | MIC (Klebsiella pneumoniae [17]): 2 µg/mL (≈ 5.72 µM) | MIC (Enterococcus faecalis [19]): 0.5 µg/mL (≈ 1.43 µM) | MIC (Acinetobacter baumannii [20]): > 128 µg/mL | MIC (Staphylococcus aureus [21]): > 128 µg/mL | MIC (Klebsiella pneumoniae [22]): > 128 µg/mL

Nc1nc2c(ncn2COCCO)c(=O)[nH]1 [ACYCLOVIR]
Activity (Human alphaherpesvirus 1 [13]): 1.6 µg/mL | Activity (Human alphaherpesvirus 1 [15]): <0.012 µg/mL

O=c1cc(CCl)oc(CN2CCN(c3cccc(C(F)(F)F)c3)CC2)c1O
MIC (Enterococcus faecalis [1]): 32 µg/mL (≈ 79.4 µM) | MIC (Pseudomonas aeruginosa [2]): 64 µg/mL | MIC (Proteus mirabilis [3]): 64 µg/mL | MIC (Bacillus subtilis [4]): 64 µg/mL (≈ 159 µM) | MIC (Pseudomonas aeruginosa [5]): 16 µg/mL (≈ 39.7 µM) | MNTC [6]: 0.8 µg/mL | MIC (Acinetobacter baumannii [7]): 32 µg/mL (≈ 79.4 µM) | MIC (Escherichia coli [8]): 64 µg/mL | MIC (Candida parapsilosis; Lodderomyces parapsilosis): 8 µg/mL (≈ 19.9 µM) | MIC (Proteus mirabilis [9]): 16 µg/mL (≈ 39.7 µM) | Activity (Human respirovirus 3 [10]): 0.025 µg/mL | MIC (Staphylococcus aureus [11]): 32 µg/mL (≈ 79.4 µM) | MNTC [12]: 0.8 µg/mL | Activity (Human alphaherpesvirus 1 [13]): 0.8 µg/mL | Activity (Human respirovirus 3 [14]): 0.4 µg/mL | MIC (Candida albicans): 8 µg/mL (≈ 19.9 µM) | Activity (Human alphaherpesvirus 1 [15]): 0.05 µg/mL | MIC (Bacillus subtilis [16]): 32 µg/mL (≈ 79.4 µM) | MIC (Klebsiella pneumoniae [17]): 16 µg/mL (≈ 39.7 µM) | MIC (Escherichia coli [18]): 16 µg/mL (≈ 39.7 µM) | MIC (Enterococcus faecalis [19]): 16 µg/mL (≈ 39.7 µM) | MIC (Acinetobacter baumannii [20]): 64 µg/mL (≈ 159 µM) | MIC (Staphylococcus aureus [21]): 64 µg/mL (≈ 159 µM) | MIC (Klebsiella pneumoniae [22]): 64 µg/mL (≈ 159 µM)

O=c1cc(CCl)oc(CN2CCN(c3ccc(C(F)(F)F)cc3)CC2)c1O
MIC (Enterococcus faecalis [1]): 32 µg/mL (≈ 79.4 µM) | MIC (Pseudomonas aeruginosa [2]): 64 µg/mL | MIC (Proteus mirabilis [3]): 64 µg/mL | MIC (Bacillus subtilis [4]): 64 µg/mL (≈ 159 µM) | MIC (Pseudomonas aeruginosa [5]): 16 µg/mL (≈ 39.7 µM) | MNTC [6]: 0.4 µg/mL | MIC (Acinetobacter baumannii [7]): 16 µg/mL (≈ 39.7 µM) | MIC (Escherichia coli [8]): 64 µg/mL | MIC (Candida parapsilosis; Lodderomyces parapsilosis): 8 µg/mL (≈ 19.9 µM) | MIC (Proteus mirabilis [9]): 16 µg/mL (≈ 39.7 µM) | Activity (Human respirovirus 3 [10]): 0.025 µg/mL | MIC (Staphylococcus aureus [11]): 16 µg/mL (≈ 39.7 µM) | MNTC [12]: 0.8 µg/mL | Activity (Human alphaherpesvirus 1 [13]): 0.8 µg/mL | Activity (Human respirovirus 3 [14]): 0.4 µg/mL | MIC (Candida albicans): 8 µg/mL (≈ 19.9 µM) | Activity (Human alphaherpesvirus 1 [15]): 0.05 µg/mL | MIC (Bacillus subtilis [16]): 8 µg/mL (≈ 19.9 µM) | MIC (Klebsiella pneumoniae [17]): 32 µg/mL (≈ 79.4 µM) | MIC (Escherichia coli [18]): 16 µg/mL (≈ 39.7 µM) | MIC (Enterococcus faecalis [19]): 8 µg/mL (≈ 19.9 µM) | MIC (Acinetobacter baumannii [20]): 64 µg/mL (≈ 159 µM) | MIC (Staphylococcus aureus [21]): 64 µg/mL (≈ 159 µM) | MIC (Klebsiella pneumoniae [22]): 64 µg/mL (≈ 159 µM)

C[C@H]1COc2c(N3CCN(C)CC3)c(F)cc3c(=O)c(C(=O)O)cn1c23.C[C@H]1COc2c(N3CCN(C)CC3)c(F)cc3c(=O)c(C(=O)O)cn1c23.O [LEVOFLOXACIN]
MIC (Enterococcus faecalis [1]): 32 µg/mL | MIC (Proteus mirabilis [3]): 1 µg/mL | MIC (Bacillus subtilis [4]): inactive | MIC (Acinetobacter baumannii [7]): 0.12 µg/mL | MIC (Candida parapsilosis): inactive | MIC (Proteus mirabilis [9]): < 0.12 µg/mL | MIC (Staphylococcus aureus [11]): 0.25 µg/mL | MIC (Candida albicans): inactive | MIC (Bacillus subtilis [16]): inactive | MIC (Klebsiella pneumoniae [17]): < 0.12 µg/mL | MIC (Enterococcus faecalis [19]): 0.5 µg/mL | MIC (Acinetobacter baumannii [20]): 64 µg/mL | MIC (Staphylococcus aureus [21]): 128 µg/mL

CC(=O)N1CCN(c2ccc(OCC3COC(Cn4ccnc4)(c4ccc(Cl)cc4Cl)O3)cc2)CC1 (centres undefined) [KETOCONAZOLE]
MIC (Enterococcus faecalis [1]): inactive | MIC (Bacillus subtilis [4]): inactive | MIC (Candida parapsilosis; Lodderomyces parapsilosis): 1 µg/mL (≈ 1.88 µM) | MIC (Staphylococcus aureus [11]): inactive | MIC (Candida albicans): 1 µg/mL (≈ 1.88 µM) | MIC (Bacillus subtilis [16]): inactive | MIC (Enterococcus faecalis [19]): inactive | MIC (Staphylococcus aureus [21]): inactive
